In patent US7718641B2, “Pyrrolo [3,4-H] isoquinoline compounds and methods for modulating gated ion channels” (Aros Pharma ApS, priority 2005, dated 2010):

Legend:
[1] = test system: rat dorsal root ganglion neurons; test: Patch clamp (voltage clamp) of native proton-gated currents in rat dorsal root ganglion neurons in primary culture; assay type: cell-based; conditions: 1 μM, voltage-clamp mode, n=3
Method: These endogenous proton-activated inward currents were recorded in the presence and absence of Compound A (1 μM) or Compound H (1 μM) using the whole cell configuration of the patch clamp method (voltage clamp mode).
Sensory neurons can be isolated and cultured in vitro from different animal species. The most widely used protocols use sensory neurons isolated from neonatal (Eckert, et al. (1997) J Neurosci Methods 77:183-190) and embryonic (Vasko, et al. (1994) J Neurosci 14:4987-4997) rat. […] Electrophysiology is performed similarly as described above in Example 2. […] In the current-clamp mode, change in the trans-membrane potential are recorded. Under acidic conditions (e.g., pH 6.5) the membrane depolarizes, leading to the firing of action potentials, as shown in FIGS. 7A and 7B.

[2] = test system: CFA-induced inflammatory pain; test: CFA model of chronic inflammatory pain, hindpaw weight bearing (Incapacitance Tester); assay type: in vivo, rat; conditions: 24 h after CFA, 60 min after drug injection, n=7-8
Method: Rats (body weight 260-300 g) were given a s.c. injection of CFA (50% in saline, 100 μl, Sigma) into the plantar surface of the hindpaw under brief halothane anaesthesia. After 24 h, they were then tested for hindpaw weight bearing responses, as assessed using an Incapacitance Tester (Linton Instrumentation, UK), (Zhu et al., 2005). The instrument incorporates a dual channel scale that separately measures the weight of the animal distributed to each hindpaw. While normal rats distribute their body weight equally between the two hindpaws (50-50), the discrepancy of weight distribution between an injured and non-injured paw is a natural reflection of the discomfort level in the injured paw (nocifensive behavior). The rats were placed in the plastic chamber designed so that each hindpaw rested on a separate transducer pad. […] For each rat, three readings from each paw were taken and then averaged. Side-to-side weight bearing difference was calculated as the average of the absolute value of the difference between two hindpaws from three trials (right paw reading-left paw reading).
Hindpaw weight bearing responses were measured in male Sprague-Dawley rats for 2-3 days prior to being given a hindpaw injection of CFA. Twenty-four hours later baseline responses were measured and rats were then administered Compound A (5, 10 and 20 mg/kg, i.p.), Compound H (10, 30 and 60 mg/kg) and morphine (3, 6 and 10 mg/kg). Weight bearing responses were then measured at 30, 60 and 120 min after drug or vehicle injection (data shown at 60 min.). […] Data are expressed as mean +/−SEM. *P<0.05, **P<0.01, *** P<0.001 vs baseline; +++: P<0.001 vs vehicle. All groups n=7-8.

hASIC1a = molecular target: T1, hASIC1a (Homo sapiens, UniProt P78348); test: Calcium-imaging (FLIPR, Fluo-4) of acid (MES)-induced calcium response in ASIC1a expressing HEK293 cells; assay type: cell-based; design: expressed in transfected cells; host or cells: HEK293; conditions: calcium mobilization assay, MES-induced calcium response, HEK293, n=3-7
T1 sequence (P78348 1-528): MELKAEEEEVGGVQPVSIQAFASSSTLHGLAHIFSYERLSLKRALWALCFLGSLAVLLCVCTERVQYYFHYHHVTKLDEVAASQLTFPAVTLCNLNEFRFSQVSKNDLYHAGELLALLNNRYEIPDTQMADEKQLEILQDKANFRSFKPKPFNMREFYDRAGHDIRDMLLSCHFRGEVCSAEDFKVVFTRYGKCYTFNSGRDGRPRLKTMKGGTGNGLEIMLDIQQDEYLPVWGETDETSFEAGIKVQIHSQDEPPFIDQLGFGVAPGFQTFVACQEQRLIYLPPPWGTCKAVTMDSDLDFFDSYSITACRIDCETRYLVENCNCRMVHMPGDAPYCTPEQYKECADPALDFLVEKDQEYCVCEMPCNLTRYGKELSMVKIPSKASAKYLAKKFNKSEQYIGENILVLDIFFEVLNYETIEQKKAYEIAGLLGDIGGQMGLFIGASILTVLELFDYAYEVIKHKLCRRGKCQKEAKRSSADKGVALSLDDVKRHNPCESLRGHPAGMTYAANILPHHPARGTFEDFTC
Method: ASIC1a expressing HEK293 cells are grown in culture medium (DMEM with 10% FBS), in polystyrene culture flasks ([…]) at 37° C. in a humidified atmosphere of 5% CO2. Confluency of cells should be 80-90% on day of plating. Cells are rinsed with 10 ml of PBS and re-suspended by addition of culture medium and trituration with a 25 ml pipette.
The cells are seeded at a density of approximately 1×10^6 cells/ml (100 μl/well) in black-walled, clear bottom, 96-well plates pre-treated with 10 mg/l poly-D-lysin (75 μl/well for ≧30 min). Plated cells were allowed to proliferate for 24 h before loading with dye.
Fluo-4/AM (1 mg, Molecular Probes) is dissolved in 912 μl DMSO. The Fluo-4/AM stock solution (1 mM) is diluted with culture medium to a final concentration of 2 μM (loading solution).
The culture medium is aspirated from the wells, and 50 μl of the Fluo-4/AM loading solution is added to each well. The cells are incubated at 37° C. for 30 min.
After the loading period, the loading solution is aspirated and the cells are washed twice with 100 μl modified Assay Buffer (145 mM NaCl, 5 mM KCl, 5 mM CaCl2, 1 mM MgCl2, 10 mM HEPES, pH 7.4) to remove extracellular dye. Following the second wash, 100 μl modified Assay Buffer is added to each well and the fluorescence is measured in FLIPR™ or FlexStation™ (Molecular Devices, USA), or any other suitable equipment known to the skilled in the art.
Temperature: Room temperature (20-22° C.)
First addition: 50 μl test solution at a rate of 30 μl/sec and a starting height of 100 μl.
Second addition: 50 μl MES solution (20 mM, 5 mM final concentration) at a rate of 35 μl/sec and a starting height of 150 μl.
Reading intervals: pre-incubation—10 sec×7 and 3 sec×3 antagonist phase—3 sec×17 and 10 sec×12
Addition plates (compound test plate and MES plate) are placed on the right and left positions in the FLIPR tray, respectively. Cell plates are placed in the middle position and the ASIC1a program is effectuated. FLIPR will then take the appropriate measurements in accordance with the interval settings above. Fluorescence obtained after stimulation is corrected for the mean basal fluorescence (in modified Assay Buffer).
The MES-induced peak calcium response, in the presence of test substance, is expressed relatively to the MES response alone. Test substances that block the MES-induced calcium response are re-tested in triplicates. Confirmed hits are picked for further characterization by performing full dose-response curves to determine potency of each hit compound as represented by the IC50 values (i.e., the concentration of the test substance which inhibits 50% of the MES-induced calcium response; see, for example, FIGS. 1A, 1B and 1C, and FIGS. 13A and 13B).

IC50 (hASIC1a) [nM]	SMILES	effect on pH 6.5-induced inward current in sensory neurons [1]	CFA-induced change in hindpaw weight bearing compared with vehicle [2]
100 to 200	COc1ccc(F)cc1-c1cc2c(c3c1CCN(C)C3)NC(=O)/C2=N/O [Compound A, 5-(5-fluoro-2-methoxyphenyl)-6,7,8,9-tetrahydro-3-(hydroxyimino)-8-methyl-1H-pyrrolo[3,2-h]isoquinoline-2(3H)-one]	inhibit the pH 6.5-induced inward current	marked dose-dependent attenuation in the CFA-induced change in weight bearing
15 to 250	CCN1CCc2c(-c3ccccc3)cc3c(c2C1)NC(=O)/C3=N/O [Compound H, 5-phenyl-6,7,8,9-tetrahydro-3-(hydroxyimino)-8-ethyl-1H-pyrrolo[3,2-h]isoquinoline-2(3H)-one]	inhibit the pH 6.5-induced inward current	marked dose-dependent attenuation in the CFA-induced change in weight bearing
